Several values for one entry are separate records, joined by “and”; a condition that tells them apart may be missing. Identical values can stand only once. Toxic doses and inconclusive results are not listed.

Data on 19 compounds can be found in PubChem BioAssay AID330 (DTP/NCI, 2004).

In the test the test system is P388 leukemia ip, CD2F1 mice, survival T/C. Nature of the test: NCI In Vivo Anticancer Drug Screen. Data for tumor model P388 Leukemia (intraperitoneal) in CD2F1 (CDF1) mice. Particulars: endpoint: median survival time, higher = longer survival. In a few lines: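 Mice carrying the transplanted tumor received test compound or vehicle. Survival was recorded in each group, and the value is the treated-group measurement divided by that of the vehicle-treated control group.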

[1] abbreviates: dose: 50.0 mg/kg/injection, schedule: Q01DX005 (ip), vehicle: Klucel (hydroxypropylcellulose) (HPC).
The mark [2] stands for this setting: dose: 100.0 mg/kg/injection, schedule: Q01DX005 (ip), vehicle: Klucel (hydroxypropylcellulose) (HPC).
[3] abbreviates: dose: 200.0 mg/kg/injection, schedule: Q01DX005 (ip), vehicle: Klucel (hydroxypropylcellulose) (HPC).
Setting [4] is: dose: 60.0 mg/kg/injection, schedule: Q01DX005 (ip), vehicle: saline with Tween-80.
[5] abbreviates: dose: 120.0 mg/kg/injection, schedule: Q01DX005 (ip), vehicle: saline with Tween-80.
The mark [6] stands for this setting: dose: 240.0 mg/kg/injection, schedule: Q01DX005 (ip), vehicle: saline with Tween-80.
Setting [7] is: dose: 12.5 mg/kg/injection, schedule: Q01DX009 (ip), vehicle: Klucel (hydroxypropylcellulose) (HPC).
Setting [8] is: dose: 25.0 mg/kg/injection, schedule: Q01DX009 (ip), vehicle: Klucel (hydroxypropylcellulose) (HPC).
[9] abbreviates: dose: 50.0 mg/kg/injection, schedule: Q01DX009 (ip), vehicle: Klucel (hydroxypropylcellulose) (HPC).
The mark [10] stands for this setting: dose: 100.0 mg/kg/injection, schedule: Q01DX009 (ip), vehicle: Klucel (hydroxypropylcellulose) (HPC).
Setting [11] is: dose: 50.0 mg/kg/injection, schedule: Q01DX009 (ip), vehicle: saline.
The mark [12] stands for this setting: dose: 100.0 mg/kg/injection, schedule: Q01DX009 (ip), vehicle: saline.
Setting [13] is: dose: 200.0 mg/kg/injection, schedule: Q01DX009 (ip), vehicle: saline.

`COCc1cccc2ccnc(COC)c12`: the T/C (dose: 100.0 mg/kg/injection, schedule: Q01DX001 (ip), vehicle: saline) is 100 % of control; the T/C (dose: 200.0 mg/kg/injection, schedule: Q01DX001 (ip), vehicle: saline) was 102 % of control; the T/C (dose: 400.0 mg/kg/injection, schedule: Q01DX001 (ip), vehicle: saline) was 103 % of control.

Regarding `O=C(COc1cccc2c(=O)cc(-c3ccccc3)oc12)OCCN1CCOCC1`, the T/C was 98 % of control under setting [1], 104 % of control under setting [2] and 91 % of control under setting [3].

For `CC(C)CC(=O)CC(=O)CCC(=O)Nc1ccc(Cl)cc1Cl`, the T/C reads like this: under setting [4], 100 % of control; under setting [5], 108 % of control; under setting [6], 100 % of control.

For the compound `C[C@@H]1CC[C@@]2(OC1)O[C@H]1C[C@H]3[C@@H]4CC=C5C=CCC[C@]5(C)[C@H]4CC[C@]3(C)[C@H]1[C@@H]2C`, the T/C is, setting by setting: (dose: 2.25 mg/kg/injection, schedule: Q01DX005 (ip), vehicle: Klucel (hydroxypropylcellulose) (HPC)) 100 % of control; (dose: 4.5 mg/kg/injection, schedule: Q01DX005 (ip), vehicle: Klucel (hydroxypropylcellulose) (HPC)) 100 % of control; (dose: 9.0 mg/kg/injection, schedule: Q01DX005 (ip), vehicle: Klucel (hydroxypropylcellulose) (HPC)) 105 % of control; (dose: 18.0 mg/kg/injection, schedule: Q01DX005 (ip), vehicle: Klucel (hydroxypropylcellulose) (HPC)) 100 % of control; (dose: 36.0 mg/kg/injection, schedule: Q01DX005 (ip), vehicle: Klucel (hydroxypropylcellulose) (HPC)) 98 % of control.

Regarding `CC(C)=CCc1c(OC(=O)c2c(C)cc(O)cc2O)cc(CO)c(CO)c1O`, the T/C (dose: 6.25 mg/kg/injection, schedule: Q01DX009 (ip), vehicle: Klucel (hydroxypropylcellulose) (HPC)) was 101 % of control; the T/C under setting [7] is 100 % of control and 101 % of control; the T/C under setting [8] is 101 % of control and 96 % of control; the T/C under setting [9] is 101 % of control and 104 % of control; the T/C under setting [10] is 101 % of control and 102 % of control.

For the compound `COC(=O)[C@@H]1[C@H](O)[C@H](C)[C@H](O)[C@H](C)/C=C\C=C(C)C(=O)Nc2c(C)c(OC(C)=O)c3c(c2O)C(=O)C(C)=C2OCOC(=C23)C(C)=C[C@@](C)(O)[C@H](O)[C@@H](C)[C@H]1OC(C)=O`, the T/C under setting [11] is 96 % of control; the T/C under setting [12] is 109 % of control and 96 % of control; the T/C under setting [13] is 99 % of control and 122 % of control; the T/C (dose: 400.0 mg/kg/injection, schedule: Q01DX009 (ip), vehicle: saline) was 100 % of control.

As for `COc1cccc(/C=N/C(/N=C/c2cccc(OC)c2O)c2cccc(OC)c2O)c1O`, the T/C runs as follows: under setting [4], 97 % of control; under setting [5], 97 % of control; under setting [6], 102 % of control.

On to `CN=NN/C1=C/CCCCCC1`, for which the T/C (dose: 15.0 mg/kg/injection, schedule: Q01DX005 (ip), vehicle: Klucel + Tween-80) was 105 % of control; the T/C (dose: 30.0 mg/kg/injection, schedule: Q01DX005 (ip), vehicle: Klucel + Tween-80) is 113 % of control; the T/C (dose: 60.0 mg/kg/injection, schedule: Q01DX005 (ip), vehicle: Klucel + Tween-80) was 111 % of control and 117 % of control.

In the case of `COC1/C=C\C=C(/C)C(=O)NC2=CC(=O)C=C(C2=O)C(OC)C(C)CC(OC)C(OC)C(C)/C=C(/C)C1OC(N)=O` (configuration not stated), the T/C reads like this: (dose: 3.0 mg/kg/injection, schedule: Q01DX009 (ip), vehicle: Klucel (hydroxypropylcellulose) (HPC)) 92 % of control; (dose: 6.0 mg/kg/injection, schedule: Q01DX009 (ip), vehicle: Klucel (hydroxypropylcellulose) (HPC)) 101 % of control.

For the compound `[Cl][Pt+2][Cl].[NH-]CCC[NH-]`, the T/C is 178 % of control (dose: 6.25 mg/kg/injection, schedule: Q04DX002 (ip), vehicle: saline) and 183 % of control (dose: 12.5 mg/kg/injection, schedule: Q04DX002 (ip), vehicle: saline).

On to `COc1cc2c(cc1OC)C(=O)Nc1nc(N)nc(N)c1C2`, for which the T/C reads like this: (dose: 100.0 mg/kg/injection, schedule: Q01DX001 (ip), vehicle: saline with Tween-80) 108 % of control; (dose: 200.0 mg/kg/injection, schedule: Q01DX001 (ip), vehicle: saline with Tween-80) 119 % of control.

As for `CC(=O)Nc1ccc2c(c1)Cc1cccc(NC(C)=O)c1-2`, the T/C under setting [11] is 105 % of control, the T/C under setting [12] is 110 % of control and the T/C under setting [13] was 115 % of control.

Consider `O=C1CC(c2ccccc2)Oc2cc(O)cc(O)c21` (configuration not stated), for which the T/C was 98 % of control under setting [7]; 98 % of control under setting [8]; 110 % of control (dose: 50.0 mg/kg/injection, schedule: Q01DX009 (ip), vehicle: other); 98 % of control under setting [10]; 102 % of control (dose: 200.0 mg/kg/injection, schedule: Q01DX009 (ip), vehicle: other); 102 % of control (dose: 400.0 mg/kg/injection, schedule: Q01DX009 (ip), vehicle: other).

Turning to `OCC12CC=CCC1C1CC=CCC1O2` (configuration not stated), the T/C (dose: 50.0 mg/kg/injection, schedule: Q01DX005 (ip), vehicle: saline) was 101 % of control; the T/C (dose: 100.0 mg/kg/injection, schedule: Q01DX005 (ip), vehicle: saline) was 99 % of control; the T/C (dose: 200.0 mg/kg/injection, schedule: Q01DX005 (ip), vehicle: saline) was 103 % of control.

Take `C/C(=C(/O)c1ccc(Cl)cc1)c1nc2ccc(Cl)cc2[nH]c1=O`: the T/C was 96 % of control (dose: 60.0 mg/kg/injection, schedule: Q01DX005 (ip), vehicle: Klucel (hydroxypropylcellulose) (HPC)) and 101 % of control (dose: 120.0 mg/kg/injection, schedule: Q01DX005 (ip), vehicle: Klucel (hydroxypropylcellulose) (HPC)).

Consider `CCC(C)c1ccc(S(=O)(=O)Nc2cc(Cl)c([N+](=O)[O-])cc2O)cc1` (configuration not stated), for which the T/C under setting [9] was 104 % of control; the T/C under setting [10] was 100 % of control; the T/C (dose: 200.0 mg/kg/injection, schedule: Q01DX009 (ip), vehicle: Klucel (hydroxypropylcellulose) (HPC)) was 102 % of control.

With `CN(C)N=Nc1cccc(C(F)(F)F)c1`, the T/C by setting is: (dose: 25.0 mg/kg/injection, schedule: Q01DX008 (ip), vehicle: saline with Tween-80) 104 % of control; (dose: 50.0 mg/kg/injection, schedule: Q01DX007 (ip), vehicle: saline) 120 % of control; (dose: 50.0 mg/kg/injection, schedule: Q01DX008 (ip), vehicle: saline with Tween-80) 101 % of control; (dose: 100.0 mg/kg/injection, schedule: Q01DX008 (ip), vehicle: saline with Tween-80) 101 % of control.

For the compound `N#CC(C(=O)C(=O)C(C#N)c1nc2ccccc2s1)c1nc2ccccc2s1` (configuration not stated), the T/C is, setting by setting: under setting [4], 92 % of control; under setting [5], 101 % of control; under setting [6], 103 % of control.

Consider `C/C(=N\NC(N)=O)c1ccc(Cl)c(-n2cccc2)c1`, for which the T/C under setting [1] is 92 % of control, the T/C under setting [2] was 91 % of control and the T/C under setting [3] is 94 % of control.
